Where two headings read alike, the source gives them in different places.
Key:
[1] = tested on: isolated rat cardiac mitochondria; assay: ROS/RONS formation in isolated mitochondria (L-012 chemiluminescence); format: biochemical
Description: Reactive oxygen and nitrogen species formation in response to in vitro challenge of isolated rat cardiac mitochondria based on reaction of the chemiluminescence dye L-012 (a luminal analogue), Example 3, Table 2. X-axis: compounds tested with concentration [μM]; y-axis: photons n per 1 sec of emission of chemiluminescence light (ECL).
Vascular oxidative stress is a well-known side effect of nitrate tolerance (an adverse condition that develops under chronic nitrate therapy). Therefore, the induction of reactive oxygen and nitrogen species formation in response to in vitro challenges with the test compounds was assessed in isolated mitochondria according to a published procedure [Daiber, A. et al., Mol Pharmacol 66 (2004), 1372-1382; Daiber, A. et al., Biochem Biophys Res Commun 338 (2005), 1865-1874; Daiber, A. et al., Mol Pharmacol 68 (2005), 579-588]. The assay is based on the reaction of the chemiluminescence dye L-012 (a luminol analogue) with reactive oxygen and nitrogen species (RONS, e.g. superoxide anion radicals, peroxynitrite anions or nitrogen dioxide radicals) and subsequent emission of chemiluminescence light (ECL). The signal is counted in photons/time (=counts/30s). The data are based on experiments with cardiac mitochondria from at least 6 rats on 3 different days.

[2] = tested on: rat aortic ring segments preconstricted with phenylephrine; assay: Isometric tension studies: vasodilation of preconstricted rat aortic ring segments; format: cell-based; details: for EC50: read-out: pD2-value (vasodilatory potency) (converted)
Method: Vasodilation of rat aortic ring segments preconstricted with phenylephrine, Example 2, Table 1. X-axis: relaxation in %; y-axis: log concentration (log M).
For in vitro characterization of the new pioglitazone nitrate (1) of Example 1, vasodilatory potency was determined by isometric tension studies. According to a published procedure rat aortic ring segments were preconstricted by the alpha-receptor-agonist phenylephrine [Daiber, A. et al., Mol Pharmacol 66 (2004), 1372-1382; Wendt, M. et al., Free Radic Biol Med 39 (2005), 381-391; Munzel, T. et al., J Clin Invest 95 (1995), 187-194]. After reaching a stable preconstriction of vascular tone, the vessels were dose-dependently vasodilated until the final tone at the highest added concentration of the vasodilator was reached. The vasodilators were added at half-logarithmic concentrations starting at 10^−8 M (=10 nanomolar). Vasodilatory potency was compared creating a concentration-relaxation curve. The data are based on experiments with aorta from at least 6 rats on 3 different days.

[3] = rat aortic rings preconstricted with phenylephrine
[4] = rat aortic rings preconstricted with phenylephrine, concentration-relaxation curve

SMILES | ROS formation, Mean ([1]; rat, 10 μM) | ROS formation, Mean ([1]; rat, 100 μM) | ROS formation, Mean ([1]; rat, 1000 μM) | Isometric tension, relaxation (Mean ± SEM) ([2]; Log [M] −3.5) | Isometric tension, relaxation (Mean ± SEM) ([2]; Log [M] −4) | Isometric tension, relaxation (Mean ± SEM) ([2]; Log [M] −4.5) | Isometric tension, relaxation (Mean ± SEM) ([2]; Log [M] −5) | Isometric tension, relaxation (Mean ± SEM) ([2]; Log [M] −5.5) | Isometric tension, relaxation (Mean ± SEM) ([2]; Log [M] −6) | Isometric tension, relaxation (Mean ± SEM) ([2]; Log [M] −6.5) | Isometric tension, relaxation (Mean ± SEM) ([2]; Log [M] −7) | Isometric tension, relaxation (Mean ± SEM) ([2]; Log [M] −7.5) | Isometric tension, relaxation (Mean ± SEM) ([2]; Log [M] −8) | Vasodilatory potency, result in words [2, 3] | EC50 [2, 4] | ROS formation, Mean ([1]; Conc. 10 μM, basal 627.7) | ROS formation, Mean ([1]; Conc. 100 μM, basal 627.7) | ROS formation, Mean ([1]; Conc. 1000 μM, basal 627.7) | also measured
CCc1ccc(CCOc2ccc(CC3SC(=O)NC3=O)cc2)nc1 (racemic) [Pioglitazone] | 563 counts/1 s | 874.5 counts/1 s | 801.7 counts/1 s | 55.47 ± 5.98% | 22.40 ± 3.34% | 11.19 ± 3.82% | 8.30 ± 3.49% | 5.63 ± 3.15% | 5.40 ± 2.88% | 4.14 ± 2.57% | 3.42 ± 1.68% | 2.92 ± 1.49% | 0% | weak relaxing effects | ~316 µM | – | – | – | –
O=[N+]([O-])OCC(CO[N+](=O)[O-])O[N+](=O)[O-] [Glycerol trinitrate] | – | – | – | – | – | – | – | – | – | – | – | – | – | – | – | 597.7 counts/1 s | 898.5 counts/1 s | 2762 counts/1 s | –
O=[N+]([O-])O[C@@H]1CO[C@H]2[C@@H]1OC[C@@H]2O [ISMN, Isosorbide-5-mononitrate] | – | – | – | 64.17 ± 4.11% | 43.46 ± 3.28% | 16.76 ± 2.29% | 9.29 ± 2.23% | 5.47 ± 1.95% | 3.73 ± 1.39% | 3.86 ± 1.04% | 0% | – | – | – | – | – | – | – | Isometric tension, relaxation (Mean ± SEM) ([2]; Log [M] −2): 98.77 ± 0.75%; Isometric tension, relaxation (Mean ± SEM) ([2]; Log [M] −2.5): 94.91 ± 1.28%; Isometric tension, relaxation (Mean ± SEM) ([2]; Log [M] −3): 82.81 ± 3.45%
O=C(NCCO[N+](=O)[O-])OCCl [Linker 2, chloromethyl N-2-nitrooxyethylcarbamate] | – | – | – | 96.18 ± 2.20% | 91.00 ± 5.36% | 86.66 ± 6.04% | 80.97 ± 6.47% | 68.37 ± 6.89% | 51.19 ± 6.35% | 30.73 ± 5.12% | 16.85 ± 3.29% | 8.25 ± 2.09% | 0% | – | – | 622.5 counts/1 s | 674.7 counts/1 s | 1395.8 counts/1 s | Effect on RONS formation, result in words ([1]; in vitro challenge of isolated rat cardiac mitochondria): has also some increasing effect; pD2-value (vasodilatory potency) [2, 4]: approximately 6
CCc1ccc(CCOc2ccc(CC3SC(=O)N(COC(=O)NCCO[N+](=O)[O-])C3=O)cc2)nc1 (stereo not drawn) [compound 1] | 697.3 counts/1 s | 609.8 counts/1 s | 889.2 counts/1 s | 98.13 ± 5.98% | 87.22 ± 3.34% | 79.07 ± 3.82% | 70.11 ± 3.49% | 57.49 ± 3.15% | 43.34 ± 2.88% | 27.72 ± 2.57% | 12.82 ± 1.68% | 2.65 ± 1.49% | 0% | even more active than isosorbide dinitrate | ~1 µM | – | – | – | Effect on RONS formation, result in words [1]: does not have a pronounced effect on RONS formation

Reference: US8703800B2, “Nitrate and diazeniumdiolate derivatives of pioglitazone” (Cardiolynx AG, priority 2010, dated 2014)
